{
  "source": "patent EP0470323A2",
  "about": "“New salts of the nicotinic acid with aminobenzylic compounds and their pharmaceutical use” (BROMLEY LIMITED, priority 1990, dated 1992)",
  "key": {"HeLa cells (DnA-repair)": {"system": "HeLa cells (DnA-repair)", "test": "Mutagenic action of urines of intragastrically treated rats on HeLa cells (DNA repair)", "type": "cell-based, human", "conditions": "urines of rats treated intragastrically with two doses, with metabolic activation, beta-glucoronidase absent"}, "Schiosaccharomyces Pombe": {"system": "Schiosaccharomyces Pombe", "test": "Mutagenic action of urines of intragastrically treated rats on yeast", "type": "cell-based", "conditions": "urines of rats treated intragastrically with two doses, with metabolic activation, beta-glucoronidase absent"}, "red cells in the rat": {"system": "red cells in the rat", "test": "Red cell adhesivity / filtration, Teitel method", "type": "in vivo", "conditions": "listed as Compound as Ex. 1", "from_the_text": "steresis (Teiltel P.: Nouv. Rev. Franç. Hématol. 7, 195, 1967). Any alteration, almost undoubtely at the level of the red cell's membrane, cause some damaging variations of the red cell's elasticity thus making more difficult the passing through the capillary vessels having more reduced diameter, and therefore increasing the flow resistance in the peripheral vessels systems. In order to determine the effect caused by the compound according to the Example 1, on these features of the red cell, the method described by Schmidt, Schonbein and colleagues (Blut 26, 369, 1973) has been used.\nIn the circulatory flow, the above mentioned capillary vessels being excluded, the blood cells do normally circulate being attached between each other because of their adhesiveness. In order to study this adhesion force, the above mentioned Teitel method has been used. Male rats of 150 g body weight approximately have been employed, and they have been treated for three consecutive days with 0,5 mM/kg/os of the compound according to the Example 1, or otherwise Buflomedil, or even Pentosiphillin used as comparison substance. After the last treatment the animals, without eating from 18 hours, have been killed in a light ethereal anaesthesy and the blood was collected over an 0,2 molar EDTA (9 and 1 volumes respectively). The red cells filtering possibility, measured with the Teitel method, wherein the quantity of red cells passing, in high haematocritical conditions, through a paper filter with holes of 20-40 µm in a previously determined time, has been ascertained as follows: the blood was centrifuged for ten minutes at 2000 rpm in order to obtain the massing of the red cells, two ml of the blood collected as above were put into an upside down turned cone made with filtering paper, being previously wetted with a physiological solution. The volume passing through the filter in 2 - 4 - 8 and 16 minutes is then measured. The average filtration time T 1/2 is reckoned on semi-logarithmic paper by putting on the abscissae the logarithm of the time, and on the ordinates the percentage of blood filtered. In order to follow the Schmidt Schönbein method, the here after described proceeding has been performed: 0,2 ml of a suspension of red cells at 2% obtained by diluting the blood with the autological plasma, then it was placed into an appropriate device permitting to filter this blood through a filter (millipores) of 5 µm mashes at a filtration pressure of 50 mm water. With a chronometer one determines the time required for the passage of the whole sample through the filter.\nAt time same time, one measures, in the same conditions, the same parameter for a plasma sample. One calculates then the relative filtration time by dividing the time required to filter the diluted blood sample by the time being necessary to filter the plasma sample. For each group the average and the standard error of the individual data obtained was reckoned. The statistical evaluation was obtained by means of the Dunnett test."}, "[1]": {"system": "five strains of Typhumurium Salmonella", "test": "Mutagenic action of urines of intragastrically treated rats on Salmonella", "type": "cell-based", "conditions": "urines of rats treated intragastrically with two doses, with metabolic activation, beta-glucoronidase absent"}, "[2]": {"system": "HeLa human cells cultures", "test": "DNA repair synthesis (tritiated thymidine incorporation) in HeLa cell cultures", "type": "cell-based", "conditions": "vs controls treated with solvent, dosages tested", "from_the_text": "The compound according to the Example 1 has been tested, in order to check and see its mutagenic effects."}, "[3]": {"system": "Hypertriglyceridaemia caused by ethanole in the rats", "test": "Hypertriglyceridaemia caused by ethanol in rats, activity at three dose levels", "type": "in vivo", "conditions": "rat; for Triglycerids M ± E.S.: 4 hours after last treatment; for Triglycerids % vs contr. positivi: 4 hours after treatment", "from_the_text": "For this test group the methods described by Sistori C.R. and colleagues (Atherosclerosis 30, 45; 1978) is followed.\nThe hypertriglyceridaemia has been induced into the male rats having a body weight of 160 - 170 g by giving them to drink, for 4 consecutive days, a solution of 10% ethanole in water."}, "[4]": {"system": "hypertrigliceridaemia from olive oil in the rats", "test": "Hypertriglyceridaemia from olive oil in the rat (serum lactescence)", "type": "in vivo", "protocol": "The method described by Zucker I.H. (Sci. Anal. Lab. 24, 114, 1972) has been followed.\nMale rats have been used, whose body weight was 150-200 g. The animals were without eating with water \"ad libitum\" and all this beginning 24 hours before the experiment. The hyperlipaemia was induced by the administration of olive oil by mouth; its composition as to the fat acids was as follows: palmitic acid 10% palmitoleic acid 1%, stearic acid 3%, […] and linoleic acid 7% (all percentages are by weight). The quantity of olive oil administered, by means of a gastric probe, was 10 ml/kg. The treatments were made by finely pounding with a china mortar and by suspending in the olive oil the examined compounds. […] The positive control animals received only olive oil; moreover, there was also a group of negative control animals who received plain water in quantities of 10 ml/kg. Every three hours a group of rats (10) was killed in a light ethereal anaesthesia, in order to be able to appreciate the percentage of triglycerides in the blood. The animals were bled by cutting them the carotids and the blood was collected in plastic test-tubes, capacity 10 ml each, and was centrifuged for ten minutes at 3500 rpm. The evaluated parameter was the lactescence of the serum, which is directly proportional to the contents of kilomicrons and therefore of triglycerides (Zucker, see above the mention). The serum has been diluted 1:5 in a physiologic solution and was read at the spectrophotometer at […] against white (physiologic solution). From the individual optical Density (D.O.) data one could calculate for each group the average of the standard error. The statistical analysis was performed by means of the t of Dunnett."}},
  "data": [
    {"molecule": "COc1cc(OC)c(C(=O)CCCN2CCCC2)c(OC)c1", "note": "[Example 1, 4-(1 pyrrholydinyl)-1-(2,4,6 trimethoxypheniyl)-1-nicotinized butanone]", "values": [
      {"measurement": "mutagenic action", "setting": "HeLa cells (DnA-repair)", "result": "any mutagenic action did not result"},
      {"measurement": "mutagenic action", "setting": "Schiosaccharomyces Pombe", "result": "any mutagenic action did not result"},
      {"measurement": "Teitel method T1/2 min. M ± E.S.", "setting": "red cells in the rat; dose 3 x 0,5 mM/kg/os (three consecutive days)", "result": "2,26 ± 0,21 min."},
      {"measurement": "Teitel method Δ % vs contr.", "setting": "red cells in the rat; dose 3 x 0,5 mM/kg/os", "result": "37,9%"},
      {"measurement": "mutagenic action", "setting": "[1]", "result": "any mutagenic action did not result"},
      {"measurement": "quantity of tritium-added Thymidine included into the DNA of the cells (repair synthese)", "setting": "[2]", "result": "did not determine any variation"},
      {"measurement": "Triglycerids M ± E.S.", "setting": "[3]; dose 0,5 mM/kg/os once a day for 4 days", "result": "148,2 ± 16,4 mg/100 ml"},
      {"measurement": "Triglycerids % vs contr. positivi", "setting": "[3]; dose 0,5 mM/kg/os", "result": "-26,8%"},
      {"measurement": "Triglycerids M ± E.S.", "setting": "[3]; dose 1,0 mM/kg/os once a day for 4 days", "result": "135,0 ± 12,6 mg/100 ml"},
      {"measurement": "Triglycerids % vs contr. positivi", "setting": "[3]; dose 1,0 mM/kg/os", "result": "-33,6%"},
      {"measurement": "Triglycerids M ± E.S.", "setting": "[3]; dose 2,0 mM/kg/os once a day for 4 days", "result": "112,6 ± 14,3 mg/100 ml"},
      {"measurement": "Triglycerids % vs contr. positivi", "setting": "[3]; dose 2,0 mM/kg/os", "result": "-44,4%"},
      {"measurement": "decrease (of triglycerides vs positive controls)", "setting": "[3]; dose of 0,4 mM/kg", "result": "26,8%"},
      {"measurement": "decrease (of triglycerides vs positive controls)", "setting": "[3]; dose of 1 mM/kg per os", "result": "33,3%"},
      {"measurement": "decrease (of triglycerides vs positive controls)", "setting": "[3]; dose of 2 mM/kg", "result": "44,4%"},
      {"measurement": "Serum opt.density at the indicated times (M ± E.S.)", "setting": "[4]; dose 1 mM/kg/os, 3 h", "result": "247 ± 15,3"},
      {"measurement": "Serum opt.density at the indicated times (M ± E.S.)", "setting": "[4]; dose 1 mM/kg/os, 6 h", "result": "1121 ± 51,6"},
      {"measurement": "Serum opt.density at the indicated times (M ± E.S.)", "setting": "[4]; dose 1 mM/kg/os, 9 h", "result": "987 ± 36,7"},
      {"measurement": "Serum opt.density at the indicated times (M ± E.S.)", "setting": "[4]; dose 1 mM/kg/os, 12 h", "result": "724 ± 28,4"},
      {"measurement": "Serum opt.density at the indicated times (M ± E.S.)", "setting": "[4]; dose 1 mM/kg/os, 15 h", "result": "458 ± 21,3"},
      {"measurement": "Serum opt.density at the indicated times (M ± E.S.)", "setting": "[4]; dose 1 mM/kg/os, 18 h", "result": "229 ± 22,6"},
      {"measurement": "Serum opt.density at the indicated times (M ± E.S.)", "setting": "[4]; dose 2 mM/kg/os, 3 h", "result": "271 ± 15,9"},
      {"measurement": "Serum opt.density at the indicated times (M ± E.S.)", "setting": "[4]; dose 2 mM/kg/os, 6 h", "result": "856 ± 44,2"},
      {"measurement": "Serum opt.density at the indicated times (M ± E.S.)", "setting": "[4]; dose 2 mM/kg/os, 9 h", "result": "624 ± 27,4"},
      {"measurement": "Serum opt.density at the indicated times (M ± E.S.)", "setting": "[4]; dose 2 mM/kg/os, 12 h", "result": "451 ± 26,2"},
      {"measurement": "Serum opt.density at the indicated times (M ± E.S.)", "setting": "[4]; dose 2 mM/kg/os, 15 h", "result": "294 ± 26,2"},
      {"measurement": "Serum opt.density at the indicated times (M ± E.S.)", "setting": "[4]; dose 2 mM/kg/os, 18 h", "result": "212 ± 28,3"},
      {"measurement": "Serum opt.density at the indicated times (M ± E.S.)", "setting": "[4]; dose 4 mM/kg/os, 3 h", "result": "260 ± 17,1"},
      {"measurement": "Serum opt.density at the indicated times (M ± E.S.)", "setting": "[4]; dose 4 mM/kg/os, 6 h", "result": "720 ± 43,8"},
      {"measurement": "Serum opt.density at the indicated times (M ± E.S.)", "setting": "[4]; dose 4 mM/kg/os, 9 h", "result": "612 ± 21,2"},
      {"measurement": "Serum opt.density at the indicated times (M ± E.S.)", "setting": "[4]; dose 4 mM/kg/os, 12 h", "result": "400 ± 28,3"},
      {"measurement": "Serum opt.density at the indicated times (M ± E.S.)", "setting": "[4]; dose 4 mM/kg/os, 15 h", "result": "226 ± 25,6"},
      {"measurement": "Serum opt.density at the indicated times (M ± E.S.)", "setting": "[4]; dose 4 mM/kg/os, 18 h", "result": "184 ± 16,2"}
    ]}
  ]
}
